Results from article PMC5587747, “A natural chalcone induces apoptosis in lung cancer cells: 3D-QSAR, docking and an in vivo/vitro assay” (Scientific Reports, 2017).
Like-named read-outs stand apart in the source and are kept apart here.

Experiments:
[1] = test system: S180-bearing mice; assay: In vivo antitumor activity in S180 implanted mice; conditions: 25 mg/kg oral daily, 12 days
Experimental: The animal experiments were carried out according to the National Institute of Health Guide for the Care and Use of Laboratory Animals. And the use of experimental animals was approved by the Animal Ethics Committee of Shenyang Pharmaceutical University. Male Kunming mice, were housed in separate cages under standard conditions (20–24 °C), relative humidity (55% ± 5%) and a 12 h light/12 h dark cycle, and allowed to acclimatize for 3 days prior to the start of experiment. Cultured S180 cells were harvested and washed with sterilized PBS (pH 7.2) three times and resuspended at a density of 6 × 10^6 cells/ml. Mice received subcutaneous implants of 0.2 mL/mouse on the right flank by means of hypodermic injection. Then the mice were divided randomly into 5 groups, including model, positive control and treatment groups with 10 mice in each group after inoculation for 24 h. […] Both groups received oral administrations via an intubation needle every day. […] The weight of the mice was recorded every day throughout the experiment. Finally, the mice were sacrificed by cervical dislocation just 2 h after the last administration. Then the tumor and spleen tissues were harvested and weighed immediately. After that the in vivo tumor inhibition ratio was calculated as: Inhibition ratio (%) = 100((A−B)/A), in which A represents the average tumor weight of the control group and B is recorded as the tumor weight of the administration group. Then, the spleen index was recorded using the following formula:
Spleen index = the final weight of spleen (mg)/the final average body weight (g) without tumor.

[2] = test system: H292 cells; assay: MTT cytotoxicity assay, H292 cells; format: cell-based, human
Experimental: (§1) The cytotoxicities of the tested flavonoids were assayed in ten human lung cancer cell lines (A549, H226, H358, H522, H292, H1944, H460, H1792, SW1573, and Calu-1) using MTT reduction assay. Cisplatin (DDP) was selected as a positive control. Compounds 1–37 were dissolved in DMSO to obtain a clear solution of 1 M, which was diluted to 400 mM, 200 mM, 100 mM, 75 mM, 50 mM, 37.5 mM, 25 mM, 10 mM and 1 mM respectively as stock solutions. The DMSO concentration in the medium was kept below 0.10%. Moreover, the stability of tested compounds in experimental buffer was confirmed at 24 h and 48 h respectively by means of HPLC analysis. Then the human lung cancer cells were placed in 96-well culture plates (5 × 10^4 cells/well) and incubated for 24 h. Then, the cells were pretreated with different concentrations of test samples (gradient concentrations 1.0, 10.0, 25.0, 37.5, 50, 75, 100, 200, 400, 1000 μM for compounds 1–37 and DDP) for 48 h. And cell growth was measured by MTT assays. The cytotoxicities against the lung cancer cells were determined systematically and expressed as IC50 value.

[3] = test system: H522; assay: MTT cytotoxicity assay, H522 cells; format: cell-based, human; conditions: DDP 10 μM
Experimental: as §1

[4] = test system: H226; assay: MTT cytotoxicity assay, H226 cells; format: cell-based, human; conditions: DDP 10 μM
Experimental: as §1

[5] = test system: H358; assay: MTT cytotoxicity assay, H358 cells; format: cell-based, human; conditions: DDP 10 μM
Experimental: as §1

[6] = test system: A549; assay: MTT cytotoxicity assay, A549 cells; format: cell-based, human; conditions: DDP 10 μM
Experimental: as §1

[7] = test system: Calu-1; assay: MTT cytotoxicity assay, Calu-1 cells; format: cell-based, human; conditions: DDP 10 μM
Experimental: as §1

[8] = test system: SW1573; assay: MTT cytotoxicity assay, SW1573 cells; format: cell-based, human; conditions: DDP 10 μM
Experimental: as §1

[9] = test system: H1792; assay: MTT cytotoxicity assay, H1792 cells; format: cell-based, human; conditions: DDP 10 μM
Experimental: as §1

[10] = test system: H460; assay: MTT cytotoxicity assay, H460 cells; format: cell-based, human; conditions: DDP 10 μM
Experimental: as §1

[11] = test system: H1944; assay: MTT cytotoxicity assay, H1944 cells; format: cell-based, human; conditions: DDP 10 μM
Experimental: as §1

[12] = Homo sapiens, NCI-H292, H292 cells, MTT, 48 h, Table S2, read-out: IC50
[13] = Homo sapiens, NCI-H292, H292 cells, Table S2, read-out: pIC50 (converted)
[14] = Homo sapiens, NCI-H292, H292 cells, MTT, 48 h, read-out: IC50

O=P1(N(CCCl)CCCl)NCCCO1 (stereo not shown) [CTX, Cyclophosphamide, reference compound]
Body weight/g After experiment [1]: 28.09 ± 0.56 g
Body weight/g Before experiment [1]: 35.97 ± 0.89 g
Inhibitory rate (%) [1]: 80.75%
Tumor weight/g ([1]; mean ± SE): 1.55 ± 0.30 g

COc1cc(OC)c(Cl)c(-c2cc(=O)c3ccc4occc4c3o2)c1Cl [Compound 1]
IC50 [2, 12]: 490 µM
IC50 [2, 13]: 490 µM

O=c1cc(-c2ccccc2)oc2c1c(O)cc1occc12 [Compound 3, kanjone]
IC50 [2, 12]: > 1000 µM
IC50 [2, 13]: > 1000 µM

O=c1cc(-c2ccc(O)cc2)oc2c1ccc1occc12 [Compound 4]
IC50 [2, 12]: 705 µM
IC50 [2, 13]: 705 µM

O=c1cc(-c2ccc3c(c2)OCO3)oc2c1ccc1occc12 [Compound 6]
IC50 [2, 12]: > 1000 µM
IC50 [2, 13]: > 1000 µM

O=c1cc(-c2ccccc2)oc2c1cc(O)c1occc12 [Compound 8]
IC50 [2, 12]: 750 µM
IC50 [2, 13]: 750 µM

COc1cc2c(=O)cc(-c3ccccc3)oc2c2ccoc12 [Compound 9, 6-hydroxy,3-methoxyfuro[8,7:4′′,5′′]flavone]
IC50 [2, 12]: 975 µM
IC50 [2, 13]: 975 µM

COc1c(-c2ccccc2)oc2c(ccc3occc32)c1=O [Compound 10]
IC50 [2, 12]: 794 µM
IC50 [2, 13]: 794 µM

COc1c(-c2ccccc2)oc2c(cc(O)c3occc32)c1=O [Compound 11, demethylate kanjone]
IC50 [2, 12]: > 1000 µM
IC50 [2, 13]: > 1000 µM

COc1c(-c2ccc3c(c2)OCO3)oc2c3c(ccc2c1=O)OC(C)(C)C=C3 [Compound 12, pongapinnol-C]
IC50 [2, 14]: 100 µM
IC50 [2, 13]: 100 µM

COc1cccc(-c2cc(=O)c3ccc4occc4c3o2)c1 [Compound 13]
IC50 [2, 12]: 615 µM
IC50 [2, 13]: 615 µM

O=c1cc(-c2cccc(O)c2)oc2c1ccc1occc12 [Compound 14, isopongaglabol]
IC50 [2, 12]: 630 µM
IC50 [2, 13]: 630 µM

COc1cc(OC)cc(-c2cc(=O)c3ccc4occc4c3o2)c1 [Compound 15]
IC50 [2, 14]: 158 µM
IC50 [2, 13]: 158 µM

COc1ccc(OC)c(-c2cc(=O)c3ccc4occc4c3o2)c1 [Compound 16]
IC50 [2, 12]: 374 µM
IC50 [2, 13]: 374 µM

COc1ccc(O)cc1-c1oc2c(ccc3occc32)c(=O)c1OC [Compound 18]
IC50 [2, 12]: > 1000 µM
IC50 [2, 13]: > 1000 µM

COc1cc(O)cc(-c2oc3c(ccc4occc43)c(=O)c2OC)c1 [Compound 19]
IC50 [2, 12]: > 1000 µM
IC50 [2, 13]: > 1000 µM

COc1c2ccoc2cc2oc(-c3ccccc3)cc(=O)c12 [Compound 20]
IC50 [2, 12]: > 1000 µM
IC50 [2, 13]: > 1000 µM

COc1c2ccoc2cc2oc(-c3ccc4c(c3)OCO4)cc(=O)c12 [Compound 22]
IC50 [2, 12]: > 1000 µM
IC50 [2, 13]: > 1000 µM

COc1ccc2c(=O)c(OC)c(-c3ccc4c(c3)OCO4)oc2c1 [Compound 24]
IC50 [2, 12]: 394 µM
IC50 [2, 13]: 394 µM

COc1ccc2c(=O)c(OC)c(-c3ccc(OC)c(OC)c3)oc2c1 [Compound 25]
IC50 [2, 12]: 1000 µM
IC50 [2, 13]: 1000 µM

COc1ccc(-c2coc3cc(CC=C(C)C)ccc3c2=O)cc1 [Compound 26]
IC50 [2, 14]: 294 µM
IC50 [2, 13]: 294 µM

COc1ccc(-c2coc3cc(O)ccc3c2=O)cc1 [Compound 27]
IC50 [2, 12]: > 1000 µM
IC50 [2, 13]: > 1000 µM

O=c1c(-c2ccc(O)cc2)coc2cc(O)cc(O)c12 [Compound 28]
IC50 [2, 12]: 631 µM
IC50 [2, 13]: 631 µM

O=c1c(-c2ccc3c(c2)OCO3)coc2cc(O)ccc12 [Compound 29]
IC50 [2, 12]: 1000 µM
IC50 [2, 13]: 1000 µM

COc1ccc(-c2coc3c(O)c(O)ccc3c2=O)cc1O [Compound 30]
IC50 [2, 12]: 501 µM
IC50 [2, 13]: 501 µM

COc1cc(O)cc(-c2coc3cc(O)ccc3c2=O)c1 [Compound 31]
IC50 [2, 12]: > 1000 µM
IC50 [2, 13]: > 1000 µM

COc1ccc(-c2coc3c(OC)c(O)ccc3c2=O)cc1 [Compound 32]
IC50 [2, 12]: 776 µM
IC50 [2, 13]: 776 µM

COc1ccc(-c2coc3c(O)c(OC)ccc3c2=O)cc1 [Compound 33]
IC50 [2, 14]: 216 µM
IC50 [2, 13]: 216 µM

CC1(C)C=Cc2c(ccc(C(=O)/C=C/c3ccc4c(c3)OCO4)c2O)O1 [Compound 35]
IC50 [2, 14]: 61.5 µM
IC50 [2, 13]: 61.5 µM

CC1(C)C=Cc2c(ccc3c2O[C@H](c2ccccc2)CC3=O)O1 [Compound 36]
IC50 [2, 14]: 50 µM
IC50 [2, 13]: 50 µM

CC1(C)C=Cc2c(ccc3c2O[C@H](c2ccc4c(c2)OCO4)CC3=O)O1 [Compound 37]
IC50 [2, 14]: 61.5 µM
IC50 [2, 13]: 61.5 µM

N.N.[Cl][Pt][Cl] [DDP, Cisplatin, reference compound]
inhibition rate (IR %) ([2]; H292, DDP 10 μM): 91.3%
inhibition rate (IR %) [3]: 69.6%
inhibition rate (IR %) [4]: 87.4%
inhibition rate (IR %) [5]: 81.2%
inhibition rate (IR %) [6]: 76.4%
inhibition rate (IR %) [7]: 59.1%
inhibition rate (IR %) [8]: 69.4%
inhibition rate (IR %) [9]: 44.6%
inhibition rate (IR %) [10]: 89.1%
inhibition rate (IR %) [11]: 40.4%

genistein [Compound 21]
IC50 ([2]; H292 cells, MTT, 48 h, Table S2, read-out: IC50): > 1000 µM
pIC50 ([2]; H292 cells, Table S2): < 3.000
